# Where “and” joins values, the source holds several entries; their conditions need not be identical. Equal values may be shown once.
# Experiments:
# [1] = system: DOX-induced chronic heart failure (CHF) rat model; experiment: Echocardiography (LVEF%, LVFS%) in DOX-induced CHF rats; assay type: in vivo; conditions: DOX group, cumulative 15 mg/kg, day 39
# Method: Experiment I, 48 rats were randomly divided into six groups: (1) the CON group; (2) the DOX group; (3) the DOX + enalapril (ENP, positive control, 1.8 mg/kg) group; (4) the DOX + SXT at low dose group (4 g/kg); (5) the DOX + SXT at middle dose group (8 g/kg); and […] the DOX + SXT at high dose group (16 g/kg). Except those rats in the CON group, the remaining rats received DOX at a 2.5 mg/kg per injection to a cumulative dose of 15 mg/kg. The dose of SXT for the low-dose group was set at 4 g/kg, based on the minimum human clinical daily dose (48.5 g, Table S2) converted to an equivalent rat dose using body surface area normalization (48.5 g/70 kg × 6.3 ≈ 4.4 g/kg, rounded to 4 g/kg). To evaluate a clear dose–response relationship, the medium and high doses were established at 8 g/kg and 16 g/kg, respectively, corresponding to 2 fold and 4 fold the low dose. This gradient dosing strategy is consistent with the Technical Guidelines for Pharmacodynamic Studies of Traditional Chinese Medicine and the Technical Guidelines for General Pharmacology Studies of Traditional Chinese Medicine and Natural Drugs, and is further supported by our previous study on the effective dose range of SXT in a rat model of doxorubicin-induced chronic heart failure. Heart function was monitored by echocardiography analysis at day 39, and the CHF model was considered to be successfully established when the left ventricular ejection fraction (LVEF%) values were reduced to 50%. Urinary samples were collected at five time points (0, 10, 20, 30, and 39 d), while fecal samples were collected before the rats were euthanized. Subsequently, the rats were anesthetized, and blood samples and heart and liver tissues were collected. All bio-samples were stored at − 80 °C until analysis.
# Experiment II was conducted to specifically confirm the exacerbated cardiac abnormality of phenylalanine in the DOX-induced CHF rats. […] Heart function was detected as in the experiment I.
# Echocardiographic (ECG) measurements were performed using M-mode tracings and continuous Doppler with a Vevo 2100 system (Visual Sonics, Toronto, ON, Canada). Rats were anesthetized with isoflurane prior to imaging. Cardiac function indices including left ventricular ejection fraction (LVEF%) and left ventricular fractional shortening (LVFS%) were measured and recorded.
# Rat body weight = assay type: in vivo; conditions: DOX group vs CON group, experiment I
# Method: Experiment I, 48 rats were randomly divided into six groups: (1) the CON group; (2) the DOX group; (3) the DOX + enalapril (ENP, positive control, 1.8 mg/kg) group; (4) the DOX + SXT at low dose group (4 g/kg); (5) the DOX + SXT at middle dose group (8 g/kg); and […] the DOX + SXT at high dose group (16 g/kg). Except those rats in the CON group, the remaining rats received DOX at a 2.5 mg/kg per injection to a cumulative dose of 15 mg/kg. The dose of SXT for the low-dose group was set at 4 g/kg, based on the minimum human clinical daily dose (48.5 g, Table S2) converted to an equivalent rat dose using body surface area normalization (48.5 g/70 kg × 6.3 ≈ 4.4 g/kg, rounded to 4 g/kg). To evaluate a clear dose–response relationship, the medium and high doses were established at 8 g/kg and 16 g/kg, respectively, corresponding to 2 fold and 4 fold the low dose. […] Heart function was monitored by echocardiography analysis at day 39, and the CHF model was considered to be successfully established when the left ventricular ejection fraction (LVEF%) values were reduced to 50%. […]
# [2] = system: phenylalanine hydroxylase (PAH); experiment: PAH expression in liver and heart (western blotting, immunofluorescence); assay type: in vivo, rat
# Method: Immunofluorescence staining was performed on tissue sections to detect phenylalanine hydroxylase (PAH), prostaglandin-endoperoxide synthase 2 (PTGS2), and reactive oxygen species (ROS). Primary antibodies against PAH and PTGS2 were used, while ROS was detected using the DCFH-DA probe. Nuclei were counterstained with DAPI. Images were captured using a fluorescence microscope.
# Protein was extracted from liver or heart tissue samples (30 mg) using lysis buffer. Total protein concentration was determined using a BCA protein assay kit (Thermo Fisher Scientific, USA). Equal amounts of protein from each sample were separated on 10–12% SDS-PAGE gels and transferred to PVDF membranes. Membranes were blocked with quick blocking buffer for 30 min, then incubated with anti-PAH primary antibody (1:1000 dilution) overnight at 4 °C. After washing, membranes were incubated with a secondary antibody for 1 h at 37 °C. Protein bands were visualized using an Odyssey infrared imaging system (JS-1070, Shanghai Peiqing Science & Technology Co., Ltd, China). Band intensities were quantified using ImageJ software.
# AML12 cells = experiment: AML12 cell viability (CCK8); assay type: cell-based
# Method: Mouse hepatocellular cell lines (AML12), purchased from the Shanghai Cell Bank of Chinese Academy of Sciences (Shanghai, China), were cultured in Dulbecco’s Modified Eagle Medium (DMEM) supplemented with 10% fetal bovine serum (FBS) and 2 mM L-glutamine and 1% pyruvate and maintained at 37 °C in a […], 5% CO2 incubator. Cells were seeded at a density of 5 × 10^5 cells/well in 6-well plates. […] Cells’ survival rate was detected by Cell Counting Kit-8 (CCK8) Reagents (Thermo Scientific, Singapore).
# [3] = DOX vs CON group, experiment I, p < 0.001
# [4] = experiment II, DOX vs CON, co-treatments vs DOX
structure (smiles),measurement,setting,value
"COc1cccc2c1C(=O)c1c(O)c3c(c(O)c1C2=O)C[C@@](O)(C(=O)CO)C[C@@H]3O[C@H]1C[C@H](N)[C@H](O)[C@H](C)O1 [DOX, Doxorubicin]",LVFS,[1],< 30% and 25.62%
same,body weight,Rat body weight,significant reduction
same,ectopic heart PAH expression,[2]; [3],significantly increased
same,liver PAH expression,[2]; [3],significantly decreased
same,PAH expression in heart tissue,[2]; [4],significantly raising
same,PAH expression in liver tissue,[2]; [4],substantially lowered
same,cell viability,AML12 cells,significant reduction
same,IC50,"AML12 cells; Mus musculus, AML12, read-out: DOX concentration that caused 50% cell death (IC50)",1000 nM
